# Reference: US20200031778A1, “NOVEL 5-SUBSTITUTED IMIDAZOLYLMETHYL DERIVATIVES” (Bayer CropScience Aktiengesellschaft, priority 2016, published 2020)
# Test: Log P by HPLC on reversed phase columns (EEC directive 79/831 Annex V.A8; methods [a], [b], [c])
# Type: physicochemical
# Protocol: Measurement of Log P values was performed according to EEC directive 79/831 Annex V.A8 by HPLC (High Performance Liquid Chromatography) on reversed phase columns with the following methods: • ^[a] Log P value is determined by measurement of LC-UV, in an acidic range, with 0.1% formic acid in water and acetonitrile as eluent (linear gradient from 10% acetonitrile to 95% acetonitrile). • ^[b] Log P value is determined by measurement of LC-UV, in a neutral range, with 0.001 molar ammonium acetate solution in water and acetonitrile as eluent (linear gradient from 10% acetonitrile to 95% acetonitrile). • ^[c] Log P value is determined by measurement of LC-UV, in an acidic range, with 0.1% phosphoric acid and acetonitrile as eluent (linear gradient from 10% acetonitrile to 95% acetonitrile).
# If more than one Log P value is available within the same method, all the values are given and separated by “+”.
# Calibration was done with straight-chain alkan2-ones (with 3 to 16 carbon atoms) with known Log P values (measurement of Log P values using retention times with linear interpolation between successive alkanones). Lambda-max-values were determined using UV-spectra from 200 nm to 400 nm and the peak values of the chromatographic signals.
row,SMILES,LogP
1,OC(Cn1cncc1Br)c1ccc(Oc2ccc(I)cc2)cc1Cl (stereo not shown) [I-28],2.88^[a]
2,OC(Cn1cncc1Br)c1ccc(Oc2ccc(Cl)cc2)cc1C(F)(F)F (stereo not shown) [I-29],2.84^[a]
3,OC(Cn1cncc1Cl)c1ccc(Oc2ccccc2)cc1F (stereo not shown) [I-30],1.99^[a]
4,OC(Cn1cncc1Cl)c1ccc(Oc2ccc(I)cc2)cc1F (stereo not shown) [I-31],2.51^[a]
5,OC(Cn1cncc1Cl)c1ccc(Oc2ccc(Cl)cc2)cc1F (stereo not shown) [I-32],2.39^[a]
6,CCOC(Cn1cncc1Br)c1ccc(Oc2ccc(Cl)cc2)cc1C(F)(F)F (stereo not shown) [I-33],4.16^[a]
7,OC(Cn1cncc1Cl)c1ccc(Oc2ccc(Cl)cc2)nc1C(F)(F)F (stereo not shown) [I-34],2.51^[a]
8,OC(Cn1cncc1Cl)c1ccc(Oc2ccc(C(F)(F)F)cc2)cc1C(F)(F)F (stereo not shown) [I-35],3.00^[a]
9,N#Cc1cncn1CC(O)c1ccc(Oc2ccc(Br)cc2)cc1C(F)(F)F (stereo not shown) [I-36],3.46^[a]
10,OC(Cn1cncc1Cl)c1ccc(Oc2ccc(Cl)cn2)cc1Cl (stereo not shown) [I-37],1.98^[a]
11,OC(Cn1cncc1Br)c1ccc(Oc2ccc(C(F)(F)F)cc2)cc1C(F)(F)F (stereo not shown) [I-38],2.96^[a]
12,OC(Cn1cncc1C(F)(F)F)c1ccc(Oc2ccc(Cl)cc2)cc1Cl (stereo not shown) [I-39],3.80^[a]
13,N#Cc1cncn1CC(O)c1ccc(Oc2ccc(Cl)cc2)cc1C(F)(F)F (stereo not shown) [I-41],3.35^[a]
14,OC(Cn1cncc1Cl)c1ccc(Oc2ccc(Cl)nc2)cc1Cl (stereo not shown) [I-42],1.86^[a]
15,N#Cc1cncn1CC(O)c1ccc(Oc2ccc(Cl)nc2)cc1Cl (stereo not shown) [I-43],2.37^[a]
16,OC(Cn1cncc1Br)c1ccc(Oc2ccc(Br)cc2)cc1Br (stereo not shown) [I-44],2.78^[a]
17,OC(Cn1cncc1Cl)c1ccc(Oc2ccc(Br)cc2)cc1Br (stereo not shown) [I-45],2.71^[a]
18,OC(Cn1cncc1F)c1ccc(Oc2ccc(Cl)cc2)cc1Cl (stereo not shown) [I-46],2.28^[a]
19,N#Cc1cncn1CC(O)c1ccc(Oc2ccc(Br)cc2)cc1Br (stereo not shown) [I-47],3.33^[a]
20,N#Cc1cncn1CC(O)c1ccc(Oc2ccc(Br)cc2)cc1F (stereo not shown) [I-48],3.04^[a]
21,N#Cc1cncn1CC(O)c1ccc(Oc2ccc(I)cc2)cc1F (stereo not shown) [I-49],3.24^[a]
22,COC(Cn1cncc1Br)c1ccc(Oc2ccc(Cl)cc2)cc1Br (stereo not shown) [I-50],3.59^[a]

row,SMILES,LogP
1,COC(Cn1cncc1Br)c1ccc(Oc2ccc(Br)cc2)cc1Br (stereo not shown) [I-51],3.72^[a]
2,COC(Cn1cncc1Cl)c1ccc(Oc2ccc(Br)cc2)cc1Br (stereo not shown) [I-52],3.76^[a]
3,N#Cc1cncn1CC(O)c1ccc(Oc2ccc(C(F)(F)F)cc2)cc1C(F)(F)F (stereo not shown) [I-53],3.52^[a]
4,N#Cc1cncn1CC(O)c1ccc(Oc2ccc(Cl)cc2)cc1F (stereo not shown) [I-54],2.94^[a]
5,COC(Cn1cncc1C#N)c1ccc(Oc2ccc(Br)cc2)cc1F (stereo not shown) [I-55],3.79^[a]
6,CCOC(Cn1cncc1Br)c1ccc(Oc2ccc(Cl)cc2)cc1Br (stereo not shown) [I-56],3.99^[a]
7,CCOC(Cn1cncc1Br)c1ccc(Oc2ccc(Br)cc2)cc1Br (stereo not shown) [I-57],4.16^[a]
8,CCOC(Cn1cncc1Cl)c1ccc(Oc2ccc(Br)cc2)cc1Br (stereo not shown) [I-58],4.21^[a]
9,N#Cc1cncn1CC(O)c1ccc(Oc2ccc(Cl)cc2)cc1Br (stereo not shown) [I-59],3.21^[a]
10,COC(Cn1cncc1C#N)c1ccc(Oc2ccc(Cl)cc2)cc1F (stereo not shown) [I-60],3.65^[a]
11,COC(Cn1cncc1C#N)c1ccc(Oc2ccc(Cl)cc2)cc1Br (stereo not shown) [I-61],4.08^[a]
12,CCOC(Cn1cncc1C#N)c1ccc(Oc2ccc(Cl)cc2)cc1Br (stereo not shown) [I-62],4.51^[a]
13,COC(Cn1cncc1C#N)c1ccc(Oc2ccc(Br)cc2)cc1Br (stereo not shown) [I-63],4.20^[a]
14,CCOC(Cn1cncc1C#N)c1ccc(Oc2ccc(Br)cc2)cc1Br (stereo not shown) [I-64],4.64^[a]
15,OC(Cn1cncc1Cl)c1ccc(Oc2ccc(Cl)cn2)cc1C(F)(F)F (stereo not shown) [I-65],2.21^[a]
16,N#Cc1cncn1CC(O)c1ccc(Oc2ccc(Cl)cn2)cc1C(F)(F)F (stereo not shown) [I-66],2.75^[a]
17,COC(Cn1cncc1C#N)c1ccc(Oc2ccc(C(F)(F)F)cc2)cc1C(F)(F)F (stereo not shown) [I-67],4.27^[a]
18,N#Cc1cncn1CC(O)c1ccc(Oc2ccc(S(F)(F)(F)(F)F)cc2)nc1Cl (stereo not shown) [I-68],3.15^[a]
19,N#Cc1cncn1CC(O)c1ccc(Oc2ccc(Cl)cn2)cc1Cl (stereo not shown) [I-69],2.54 ^[a]
20,N#Cc1cncn1CC(O)c1ccc(Oc2ccc(Br)cn2)cc1Cl (stereo not shown) [I-70],2.63^[a]
21,OC(Cn1cncc1Cl)c1ccc(Oc2ccc(Cl)cc2)cc1C(F)F (stereo not shown) [I-71],2.45^[a]
22,N#Cc1cncn1CC(O)c1ccc(Oc2ccc(Cl)cc2)cc1C(F)F (stereo not shown) [I-72],3.09^[a]

row,SMILES,LogP
1,N#Cc1cncn1CC(O)c1ccc(Oc2ccc(Br)nc2)cc1Cl (stereo not shown) [I-73],2.47^[a]
2,COC(Cn1cncc1C#N)c1ccc(Oc2ccc(Cl)cc2)cc1C(F)F (stereo not shown) [I-74],3.76^[a]
3,COC(Cn1cncc1Cl)c1ccc(Oc2ccc(Cl)cc2)cc1C(F)F (stereo not shown) [I-75],3.15^[a]
4,N#Cc1cncn1CC(O)c1ccc(Oc2ccccc2)cc1Cl (stereo not shown) [I-76],2.70^[a]
5,OC(Cn1cncc1Cl)c1ccc(Oc2ccc(Br)nc2)cc1Cl (stereo not shown) [I-77],1.92^[a]
6,OC(Cn1cncc1Cl)c1ccc(Oc2cccnc2)cc1Cl (stereo not shown) [I-78],1.13^[a]
7,OC(Cn1cncc1Cl)c1ccc(Oc2ccc(Br)cn2)cc1Cl (stereo not shown) [I-79],2.10^[a]
8,OC(Cn1cncc1Cl)c1ccc(Oc2ccccn2)cc1Cl (stereo not shown) [I-80],1.53^[a]
9,COC(Cn1cncc1C#N)c1ccc(Oc2ccc(Cl)cc2)cc1C(F)(F)F (stereo not shown) [I-81],4.15^[a]
10,COCOC(Cn1cncc1C#N)c1ccc(Oc2ccc(Cl)cc2)cc1C(F)(F)F (stereo not shown) [I-82],4.03^[a]
11,CCOC(Cn1cncc1C(N)=O)c1ccc(Oc2ccc(Cl)cc2)cc1C(F)(F)F (stereo not shown) [I-83],2.54^[a]
12,CCOC(Cn1cncc1C#N)c1ccc(Oc2ccc(Cl)cc2)cc1C(F)(F)F (stereo not shown) [I-84],4.54^[a]
13,CCCOC(Cn1cncc1C#N)c1ccc(Oc2ccc(Cl)cc2)cc1C(F)(F)F (stereo not shown) [I-85],4.92^[a]
14,CC(=O)OC(Cn1cncc1C#N)c1ccc(Oc2ccc(Cl)cc2)cc1C(F)(F)F (stereo not shown) [I-86],3.7^8[a]
15,N#CCOC(Cn1cncc1C#N)c1ccc(Oc2ccc(Br)cc2)cc1C(F)(F)F (stereo not shown) [I-87],3.73^[a]
16,COC(Cn1cncc1C#N)c1ccc(Oc2ccc(Br)cc2)cc1C(F)(F)F (stereo not shown) [I-88],4.25^[a]
17,C=CCOC(Cn1cncc1C#N)c1ccc(Oc2ccc(Br)cc2)cc1C(F)(F)F (stereo not shown) [I-89],4.69^[a]
18,OC(Cn1cncc1C(F)(F)F)c1ccc(Oc2ccc(Cl)cc2)cc1F (stereo not shown) [I-90],3.4^8[a]
19,CCOC(Cn1cncc1C#N)c1ccc(Oc2ccc(Br)cc2)cc1C(F)(F)F (stereo not shown) [I-91],4.69^[a]
20,CN(C)C(=O)OC(Cn1cncc1C#N)c1ccc(Oc2ccc(Br)cc2)cc1C(F)(F)F (stereo not shown) [I-92],3.85^[a]
21,COC(Cn1cncc1C(F)(F)F)c1ccc(Oc2ccc(Cl)cc2)cc1F (stereo not shown) [I-93],4.34^[a]
22,COC(=O)COC(Cn1cncc1C#N)c1ccc(Oc2ccc(Br)cc2)cc1C(F)(F)F (stereo not shown) [I-94],3.99^[a]

row,SMILES,LogP
1,N#Cc1cncn1CC(O)c1ccc(Oc2ccc(I)cc2)cc1Cl (stereo not shown) [I-95],3.44^[a]
2,N#Cc1cncn1CC(O)c1cnc(Oc2ccc(S(F)(F)(F)(F)F)cc2)cc1C(F)(F)F (stereo not shown) [I-96],3.44^[a]
3,OC(Cn1cncc1F)c1ccc(Oc2ccc(Cl)cc2)cc1C(F)(F)F (stereo not shown) [I-98],2.39^[a]
4,N#Cc1cncn1CC(O)c1ccc(Oc2ccccc2)cc1F (stereo not shown) [I-99],2.54^[a]
5,COC(Cn1cncc1C#N)c1ccc(Oc2ccccc2)cc1F (stereo not shown) [I-100],3.23^[a]
6,OC(Cn1cncc1Cl)c1ccc(Oc2ccc(I)cc2)cc1Br (stereo not shown) [I-101],2.80^[a]
7,OC(Cn1cncc1F)c1ccc(Oc2ccc(C(F)F)cc2)nc1Cl (stereo not shown) [I-102],1.80^[a]
8,OC(Cn1cncc1F)c1ccc(Oc2ccc(Br)cc2)nc1C(F)(F)F (stereo not shown) [I-103],2.28^[a]
9,CC(=O)OC(Cn1cncc1F)c1ccc(Oc2ccc(Cl)cc2)cc1C(F)(F)F (stereo not shown) [I-104],3.18^[a]
10,CCC(=O)OC(Cn1cncc1F)c1ccc(Oc2ccc(Cl)cc2)cc1C(F)(F)F (stereo not shown) [I-105],3.54^[a]
11,C#CCOC(Cn1cncc1F)c1ccc(Oc2ccc(Cl)cc2)cc1C(F)(F)F (stereo not shown) [I-106],3.26^[a]
12,CCOC(Cn1cncc1F)c1ccc(Oc2ccc(Cl)cc2)cc1C(F)(F)F (stereo not shown) [I-107],3.54^[a]
13,COC(Cn1cncc1F)c1ccc(Oc2ccc(Cl)cc2)cc1C(F)(F)F (stereo not shown) [I-108],3.16^[a]
14,OC(Cn1cncc1Br)c1ccc(Oc2ccc(I)cc2)cc1Br (stereo not shown) [I-109],2.78^[a]
15,N#Cc1cncn1CC(O)c1ccc(Oc2ccc(I)cc2)cc1Br (stereo not shown) [I-110],3.48^[a]
16,N#Cc1cncn1CC(O)c1cnc(Oc2ccc(C(F)(F)F)cc2)cc1C(F)(F)F (stereo not shown) [I-111],3.15^[a]
17,N#Cc1cncn1CC(O)c1ccc(Cl)cc1 (stereo not shown) [I-112],1.53^[a]
18,OC(Cn1cncc1F)c1cnc(Oc2ccc(Cl)cc2F)cc1C(F)(F)F (stereo not shown) [I-113],2.35^[a]
19,N#Cc1cncn1CC(O)c1cnc(Oc2ccc(Cl)cc2F)cc1C(F)(F)F (stereo not shown) [I-114],3.13^[a]
20,N#Cc1cncn1CC(O)c1cnc(Oc2ccc(C(F)F)cc2)cc1C(F)(F)F (stereo not shown) [I-115],2.80^[a]
21,OC(Cn1cncc1F)c1cnc(Oc2ccc(C(F)F)cc2)cc1C(F)(F)F (stereo not shown) [I-116],2.11^[a]
22,N#Cc1cncn1CC(O)c1ccc(F)cc1 (stereo not shown) [I-117],1.37^[a]
